Measured values published in patent US11484576B2, “Methods of promoting corticospinal neuronal outgrowth in neuronal lesions using a pro-regenerative human osteopontin fragment” (THE CHILDREN'S MEDICAL CENTER CORPORATION, priority 2017, dated 2022).

Tests used:
injured mice = assay: Adverse effects of systemic potassium channel blockers in injured mice; type: in vivo; settings: injured mice treated with OPN/IGF1
Protocol: Chemicals and Antibodies. For systematic administration (i.p.), Quipazine [Sigma (Q1004), 0.2 mg/kg), SKF-82197 [Tocris (1447) 0.1 mg/kg], and 8-OH-DPAT [Tocris (0529), 0.1 mg/kg), 4AP [Sigma (275875), 1 mg/kg, 3 mg/kg), 4AP-MeOH [Santa Cruz (sc-267247), (1 mg/kg)] were dissolved in saline. Tamoxifen (Sigma, 10540-29-1) was dissolved in oil. For diphtheria toxin mediated cell ablation, we purchased the diptheria toxin from Sigma (D0564). For immunostaining, the primary antibody used were chicken anti-GFP [Abcam (Cat: ab13970)], rabbit anti-RFP [Abcam (Cat: ab34771)], rabbit anti-PKCγ [Santa Cruz (sc211)], rabbit anti-GFAP [DAKO (Z0334)]; rabbit anti-5-HT [Immunostar (20080)], rabbit-anti-IGFR [Santa Cruz (sc-712)] rabbit-anti-pIGFR[3 [Cell signaling technology (3024)], rabbit-anti-pS6 [Cell signaling technology (4857)], rat anti-CD68 [Bio-Rad (MCA 1957)], and Guinea pig-anti-Vglut1 [Synaptic Systems (135304)].
Pharmacological Treatment. […] A pilot experiment was performed and determined that 4AP (1 mg/kg, 3 mg/kg) and 4AP-MeOH (1 mg/kg) achieved their maximal effects within 1-3 hours post systematic administration (i.p.). […]

[1] = system: mice with T10 lateral hemisection; assay: Ground walking and treadmill walking after T10 lateral hemisection; type: in vivo, mouse; settings: i.p.
Protocol: (§1) Injury Models. […] Briefly, a midline incision was made over the thoracic vertebrae, followed by a T10 laminectomy. The unilateral hemisection was then performed carefully using both scalpel and micro-scissors, avoiding, to the greatest extent, the damage of the spinal cord dura. The muscle layers were then sutured and the skin was secured with wound clips. All mice received post hoc histological analysis and those with spared CST axons (incomplete lateral hemisection) or with significant less CST axons on the contra-lesional side (over lateral hemisection) at the lumbar spinal cord (L3), exemplified in FIG. 9A, were excluded for behavioral analysis.
(§2) Pharmacological Treatment. […] All behavioral tests were then accomplished between 1-3 hours post administration.

[2] = system: mice with unilateral photothrombotic stroke; assay: Single pellet retrieval and irregular ladder walking after unilateral photothrombotic cortical stroke; type: in vivo, mouse; settings: ischemic mice treated with OPN/IGF1
Excerpt: The procedure of unilateral photothrombotic stroke was similar to that described elsewhere (Watson et al., 1985; Wahl et al., 2014). Briefly, mice were fixed in a stereotactic frame, with the skull exposed. To unilaterally cover the sensoromotor cortex, the cold light source (Zeiss, CL 1500HAL, 3000K) was positioned over an opaque template with an opening (a circle with a diameter of 2.5 mm) centered at (−0.5, 2.0 mm, anterior and lateral to the bregma) on the cortex contralateral to the preferred paw in the food pellet retrieval task. […] Lesion volumes were calculated when mice brains were fixed at the end point of the experiments.
Irregular Ladder Walking. […] All trials were video recorded (Hotshot e64, 100 fps) and paw placement was analyzed twice by blinded observers. […] All other steps were recorded as errors, which included two types: 1) Miss: when crossing the ladder, the forelimb/hindlimb either completely miss the rung or contact the rung with the wrist/heel instead of the paw; 2) Slip: when crossing the ladder, the mice use a few digits instead of the paw to place on the rungs, causing the subsequent slip on the rungs. The results were expressed as both percentage of total errors and percentage of different placement categories (hit, miss and slip).
Single pellet Retrieval. […] The success rate was calculated as: number of successful retrievals/total attempts per trail *100. […]

[3] = system: mice with T10 lateral hemisection; assay: Irregular ladder walking after spinal cord T10 lateral hemisection; type: in vivo, mouse; settings: OPN/IGF1 treated group, T10 hemisection
Protocol: as §1
Virus and Protein Injection.
Irregular Ladder Walking. […] Briefly, the ladder was elevated 30 cm above the ground. […] To prevent animals from learning the pattern, the irregular pattern was changed from trial to trial. All trials were video recorded (Hotshot e64, 100 fps) and paw placement was analyzed twice by blinded observers. Steps with precise placement of the center of the palm on the rung (for both forelimbs and hindlimbs) and digits closed (for forelimbs) were defined as correct steps (hit). All other steps were recorded as errors, which included two types: 1) Miss: when crossing the ladder, the forelimb/hindlimb either completely miss the rung or contact the rung with the wrist/heel instead of the paw; 2) Slip: when crossing the ladder, the mice use a few digits instead of the paw to place on the rungs, causing the subsequent slip on the rungs. The results were expressed as both percentage of total errors and percentage of different placement categories (hit, miss and slip).
as §2

Nc1ccncc1CO [4-AP-MeOH, 4-aminopyridine-3-methanol]
effect and safety compared to 4-AP (injured mice): significantly better effects with broader safety doses | recovery of treadmill walking performance compared to the control [1]: neither 4-AP nor 4-AP-MeOH had significant effects | additional effect on single pellet retrieval and irregular ladder walking [2]: further improvements on both assays | error rate, irregular ladder walking, after 4-AP-MeOH ([3]; 1 mg/kg i.p.): 30% | error rate, irregular ladder walking, before 4-AP-MeOH [3]: about 48%
